Entries after “also recorded” stand apart in the source; their conditions may differ.
Tests used:
Hcn4 = Hcn4 expression in Tbx18-induced pacemaker cardiomyocytes (real-time PCR); format: cell-based, rat; conditions: for Hcn4 expression: 3 days, Tbx18-PCs
Method: (§1) For the experiments of drug treatment, Tbx18-PCs after re-expression of Tbx18 were treated with sodium pyruvate (1 mM, 11360-070, Thermo Fisher Scientific, 3 days), 2-deoxy-D-glucose (2-DG, 5 mM, D8375, Sigma-Aldrich, 3 days), wortmannin (PI3K inhibitor, 100 nM, 12-338, Merck Millipore, MA, USA, 4 days), anti-integrin β1 monoclonal antibody (ltgb1, MAB1987Z, 10 μg/mL, Merck Millipore, 2 days), or SB203580 (p38-MAP kinase inhibitor, 559389, 1 μM, Merck Millipore, 3 days), respectively. Then the beating rate and gene expression were analyzed.
(§2) Tbx18-PCs or human IPS-CMs were transduced with human Aldoc adenovirus (CMV promotor, 068583A, Applied Biological Materials, Richmond, BC, Canada), and CMV-null adenovirus was used as a control (000047A, Applied Biological Materials) for 24 hours. Aldoc overexpression was confirmed by Aldoc transcripts (FIG. 1J). The protein, gene transcripts, and beating rates were analyzed 3 days after transduction. The viral titer used in cell transduction of aldolase c overexpression is MOI of 10. The transduced cells were not subjected to enrichment by the antibiotic selection.
(§3) Total RNA was extracted from cultured VMs using the RNeasy® Mini Kit (74106, Qiagen, Venlo, Netherlands). Complementary DNAs (cDNAs) were synthesized using a SuperScript® […] First-Strand Synthesis System (18080051, Thermo Fisher Science). Quantitative real-time PCR (qRT-PCR) was performed using Applied Biosystems™ StepOnePlus Real-Time PCR system with TaqMan probe assays (4331182, Invitrogen, Waltham, Massachusetts, USA) and PrimeTime qPCR Probe Assays (Integrated DNA Technologies, Inc., Coralville, Iowa, USA). The internal control was Gapdh. The conditions of thermocycle used in amplification were denaturation at 95° C. for 15 seconds and annealing and extension step at 60° C. for 60 seconds by 40 cycles. The relative values of gene transcripts were analyzed by ΔΔCt method. All the probes used are listed below in Table 1.

[1] = tested on: Tbx18-induced pacemaker cardiomyocytes; assay: Beating rate / electrical firing rate of Tbx18-induced pacemaker cardiomyocytes (video or MEA); format: cell-based, rat
Method: (§4) The Tbx18-PCs were used as the cell model of pacemaker cardiomyocytes, which were generated by the transduction of VMs with adenoviral human Tbx18 (MOI [multiplicity of infection]: 10; green fluorescent protein [GFP] reporter, ADV-225152, Vector Biolabs, Malvern, USA) for 24 hours (Kapoor et al; Hu et al.). Those with adenovirus-CMV-GFP were used as control VMs (Tsai et al., J Biomed Sci, 2015). For the cocultures of Tbx18-PCs and fibroblasts, a ratio of fibroblasts/VMs ( 1/10) was first plated on fibronectin-coated wells, and adenoviral Tbx18 was transduced for 24 hours one day after seeding to induce PCs. […] Therefore, the beating rates, metabolic and molecular phenotypes, including microelectrode array (MEA), whole transcriptomes, Seahorse analysis, metabolomics, glycolysis metabolites (lactate or DHAP), protein and gene transcripts were analyzed 3-5 days after Tbx18 transduction. The beating rates were recorded by MEA or video. An inverted microscope (AXIO Observer Al, Carl Zeiss AG, Oberkochen, Germany) was used for 10-second video capture. Video was analyzed with Q Capture Pro 6.0 (Teledyne Technologies, CA, USA).
as §1, §2
MEA was used to record electrical firing in Tbx18-PCs, Tbx18-PC tissue sheets, or human IPS-CMs. The cells or tissue sheets were seeded on fibronectin-coated MEA CytoView MEA 24-White plate at 37° C. and 5% C02 (M384-tMEA-24W, Axion BioSystems, Atlanta, USA). The electrical firing rates were recorded by Maestro Edge (Axion BioSystems). The continuous recording of electrical signals for 5 minutes was used for the analysis (sampling frequency: 12.5 kHz, low pass and high pass filter: 2 kHz and 0.1 Hz) by AxIS Navigator software Axion BioSystems. In human IPS-CMs, the cells were further treated with epinephrine (150 ng/mL, Taiwan Biotech Co., Ltd) after recording baseline electrical firing rate. Similarly, continuous recording of electrical signals for 5 minutes after the treatment was used for the analysis.
The cocultures of Tbx18-pacemaker cardiomyocytes (PCs) and fibroblasts, a ratio of fibroblasts/VMs ( 1/10) was first plated on fibronectin-coated wells, and adenoviral Tbx18 (MOI [multiplicity of infection]: 10, ADV-225152, Vector Biolabs, Malvern, USA) was transduced for 24 hours after seeding to induce PCs. After re-expression of Tbx18 were treated with the inhibitors of PI3K (wortmannin, PIK-75, Duvelisib, Alpelisib, Copanlisib, Idelalisib, and Eganelisib), and one IKK inhibitor (BMS-345541) for 4 days. Then the beating rate and Aldoc transcriptional expressions were analyzed. The beating rates were recorded by video. An inverted microscope (AXIO Observer Al, Carl Zeiss AG, Oberkochen, Germany) was used for 10-second video capture. We analyzed the video with Q Capture Pro 6.0 (Teledyne Technologies, CA, USA). Aldoc gene transcriptional expressions were analyzed by quantitative real-time PCR. […]

aldolase c (Aldoc) = assay: Aldoc transcripts by quantitative real-time PCR in treated Tbx18-PC/fibroblast cocultures; format: cell-based, rat; conditions: for transcriptional expressions of Aldolase C / Aldolase C expressions: 4 days; for aldolase c expressions within pacemaker cardiomyocytes: in-vitro, summary statement, concentration not given at the place
Method: as §4
For the experiments of drug treatment, Tbx18-PCs after re-expression of Tbx18 were treated with sodium pyruvate (1 mM, 11360-070, Thermo Fisher Scientific, 3 days), 2-deoxy-D-glucose (2-DG, 5 mM, D8375, Sigma-Aldrich, 3 days), wortmannin (PI3K inhibitor, 100 nM, 12-338, Merck Millipore, MA, USA, 4 days), anti-integrin β1 monoclonal antibody (ltgb1, MAB1987Z, 10 μg/mL, Merck Millipore, 2 days), or SB203580 (p38-MAP kinase inhibitor, 559389, 1 μM, Merck Millipore, 3 days), respectively. Then the beating rate and gene expression were analyzed. […]
as §3
The cocultures of Tbx18-pacemaker cardiomyocytes (PCs) and fibroblasts, a ratio of fibroblasts/VMs ( 1/10) was first plated on fibronectin-coated wells, and adenoviral Tbx18 (MOI [multiplicity of infection]: 10, ADV-225152, Vector Biolabs, Malvern, USA) was transduced for 24 hours after seeding to induce PCs. After re-expression of Tbx18 were treated with the inhibitors of PI3K (wortmannin, PIK-75, Duvelisib, Alpelisib, Copanlisib, Idelalisib, and Eganelisib), and one IKK inhibitor (BMS-345541) for 4 days. Then the beating rate and Aldoc transcriptional expressions were analyzed. The beating rates were recorded by video. An inverted microscope (AXIO Observer Al, Carl Zeiss AG, Oberkochen, Germany) was used for 10-second video capture. We analyzed the video with Q Capture Pro 6.0 (Teledyne Technologies, CA, USA). Aldoc gene transcriptional expressions were analyzed by quantitative real-time PCR. The protocol is as same as the treatment described previously (FIGS. 31A-31B).
Total RNA was extracted from cultured VMs using the RNeasy® Mini Kit (74106, Qiagen, Venlo, Netherlands). Complementary DNAs (cDNAs) were synthesized using a SuperScript® […] First-Strand Synthesis System (18080051, Thermo Fisher Science). […]

Tbx18-PC tissue sheets = assay: Beating rate / electrical firing of engineered Tbx18-PC tissue sheets; format: cell-based, rat; conditions: epinephrine 0.15 μg/mL
Method: The fibroblasts and VMs were mixed in a ratio of 1:10 (fibroblast/VMs, total cell number: 1×10^6) with an extracellular matrix of 10% Matrigel (354230, Corning®) in the cultured-insert (80209, 0.22 mm^2, ibidi GmbH, Grsfelfing, Germany) for gelation at 37° C. The engineered tissue was transduced with adenoviral human Tbx18 or control vectors 24 hours after gelation. The constant beating was usually observed 4-5 days after Tbx18 adenovirus transduction. Therefore, phenotypes were determined using immunofluorescence staining, beating rate (either video recording or microelectrode array), and real-time quantitative PCR after virus transduction for 5-6 days. The autonomic response of Tbx18-PC tissue sheets was evaluated by treatment with epinephrine (Taiwan Biotech Co., Ltd, Taoyuan, Taiwan).
The Tbx18-PC cocultures were treated with 200 nM siRNAs (Dharmacon™, GE Healthcare, Lafayette, CO, USA or GenePharma, Shanghai, China) or negative controls (nontarget siRNAs, D-001810-10-05, Dharmacon™ or negative controls, GenePharma) for 24 hours using DharmaFECT transfection reagent (Dharmacon™) in serum-free and antibiotic-free medium. Cells were incubated at 37° C. in 5% C02 for 96 hours, and the beating rate was recorded by microelectrode array (MEA) or video. Then, total RNA was extracted for real-time PCR analysis. […]

mouse SAN = assay: Heart rate recording (ECG) in mice; format: in vivo; conditions: epinephrine 2.5 μg intraperitoneal, control (scramble) mice
Method: Male mice (C57BL/6, 26 to 32 g, 13-14 weeks, National Laboratory Animal Center, Taiwan) were mechanically ventilated at a controlled temperature (37° C.±0.5° C.) under general anesthesia (isoflurane). […] AAV9 siRNA or scramble virus with a reporter of green fluorescent protein (1.44×10^9 gene copies; AAV9 scramble siRNA [iAAV01509] and Aldoc siRNA pooled virus [117530940219], Applied Biological Materials, Canada) was added to the pericardial recess through the opening. […] The survival rate was 100%. All animals were included except one scramble animal. One animal from the scramble group was excluded because arrhythmia was observed before the experiment.
Two weeks later, the three-lead surface ECG (Biopac, MP36, CA, USA) was recorded on mice by inserting needle electrodes subcutaneously into the limbs after anesthesia. The heart rate was recorded for 2 minutes first to compare the knockdown and control groups. Then, we performed a peritoneal injection of epinephrine (2.5 μg, Taiwan Biotech) and recorded the heart rate for 5 minutes after the injection. After the recording, the mouse hearts were removed for tissue analysis. ECG data were analyzed by Biopac Student Lab 4.1 software (Biopac).

[2] = in-vitro, summary statement, concentration not given at the place

SMILES: O=CC[C@@H](O)[C@H](O)[C@H](O)CO [2-DG, 2-deoxy-D-glucose]
- Hcn4 expression (Hcn4; 2-DG 5 mM): decreased
- beating rate ([1]; 2-DG 5 mM, 3 days, Tbx18-PCs): decreased

SMILES: Cc1nc(NC(=O)N2CCC[C@H]2C(N)=O)sc1-c1ccnc(C(C)(C)C(F)(F)F)c1 [Alpelisib]
- transcriptional expressions of Aldolase C (aldolase c (Aldoc); 250 nM, control 0.87±0.05, P=0.008): 1.13±0.05
- aldolase c expressions within pacemaker cardiomyocytes (aldolase c (Aldoc)): increased
- beating rates [1, 2]: increased

SMILES: Cc1ccc2nc(NCCN)c3ncc(C)n3c2c1 [BMS-345541]
- Aldolase C expressions (aldolase c (Aldoc); BMS-345541 5 μM, vs control): increased
- aldolase c expressions within pacemaker cardiomyocytes (aldolase c (Aldoc)): increased
- Hcn4 expressions (Hcn4; BMS-345541 5 μM, vs control): increased
- beating rate ([1]; BMS-345541 1-10 μM, 4 days, vs control): increased
- beating rates [1, 2]: increased

SMILES: COc1c(OCCCN2CCOCC2)ccc2c1N=C(NC(=O)c1cnc(N)nc1)N1CCN=C21 [Copanlisib]
- transcriptional expressions of Aldolase C (aldolase c (Aldoc); 10 nM, control 0.64±0.09, P=0.002): 1.32±0.09
- aldolase c expressions within pacemaker cardiomyocytes (aldolase c (Aldoc)): increased
- beating rates [1, 2]: increased

SMILES: C[C@H](Nc1ncnc2nc[nH]c12)c1cc2cccc(Cl)c2c(=O)n1-c1ccccc1 [Duvelisib]
- transcriptional expressions of Aldolase C (aldolase c (Aldoc); 50 nM, control 0.82±0.08, P=0.02): 1.17±0.11

SMILES: C[C@H](NC(=O)c1c(N)nn2cccnc12)c1cc2cccc(C#Cc3cnn(C)c3)c2c(=O)n1-c1ccccc1 [Eganelisib]
- transcriptional expressions of Aldolase C (aldolase c (Aldoc); 40 nM, control 0.57±0.03, P=0.013): 0.82±0.07
- aldolase c expressions within pacemaker cardiomyocytes (aldolase c (Aldoc)): increased
- beating rates [1, 2]: increased

SMILES: CC[C@H](Nc1ncnc2[nH]cnc12)c1nc2cccc(F)c2c(=O)n1-c1ccccc1 [Idelalisib]
- transcriptional expressions of Aldolase C (aldolase c (Aldoc); 100 nM, control 0.87±0.05, P=0.02): 1.01±0.02
- aldolase c expressions within pacemaker cardiomyocytes (aldolase c (Aldoc)): increased
- beating rates [1, 2]: increased

SMILES: Cc1ccc([N+](=O)[O-])cc1S(=O)(=O)N(C)/N=C/c1cnc2ccc(Br)cn12 [PIK-75]
- Aldolase C expressions (aldolase c (Aldoc); PIK-75 high dose (10 nM), vs control): increased
- aldolase c expressions within pacemaker cardiomyocytes (aldolase c (Aldoc)): increased
- beating rate ([1]; PIK-75 high dose (10 nM), 4 days, vs control): increased
- beating rate ([1]; PIK-75 low dose (1-5 nM), 4 days, vs control): increased
- beating rates [1, 2]: increased

SMILES: C[S+]([O-])c1ccc(-c2nc(-c3ccncc3)c(-c3ccc(F)cc3)[nH]2)cc1 (stereo not shown) [SB203580]
- Aldoc expression (aldolase c (Aldoc); SB203580 1 μM, 3 days, cocultures, vs control): decreased; also recorded: reduced

SMILES: CNC[C@H](O)c1ccc(O)c(O)c1 [epinephrine]
- beating rate (Tbx18-PC tissue sheets; Tbx18-PC tissue sheets): increased
- beating rate (Tbx18-PC tissue sheets; control tissue sheets): minimal changes
- heart rate (mouse SAN): increased

SMILES: CC(=O)C(=O)[O-].[Na+] [sodium pyruvate]
- Hcn4 expression (Hcn4; sodium pyruvate 1 mM): increased
- beating rates ([1]; sodium pyruvate 1 mM, 3 days, Tbx18-PCs): increased
